Laboratory results: patent US20080145858A1, “DETECTION AND IDENTIFICATION OF TOXICANTS BY MEASUREMENT OF GENE […]” (priority 2003, published 2008)
Marks after values point to notes of the source that are not given here.

System: Xenopus laevis cleavage stage embryos (stage 8)
Test: Xenopus cDNA microarray, differential gene expression after PMA treatment during cleavage stage (Group I)
Format: in vivo
Settings: for Normalization by Landmarks (1.6) / Normalization by all Data Points (1.3) / Ratio of Medians (Cy5/Cy3) First Spot / Ratio of Medians (Cy5/Cy3) Mean / Ratio of Medians (Cy5/Cy3) Second Spot / Normalized by Landmarks (1.59) / Normalized by all Data Points (1.28) / (CY3/CY5) by Landmarks (1.6) / (CY3/CY5) by all Data Points (1.3): PMA 100 ng/ml; for % increase of mRNA expression by Microarray analysis (NF by all data point): Stage 8
Description: Specifically, the method and screen of the present invention function as follows. EST clones produced from Xenopus laevis unfertilized eggs were used in the present study with ˜1,200 EST clones from a 18,500 EST clone set selected for production of a Xenopus cDNA microarray. The Xenopus microarray was used to measure the effect of chemical treatment on Xenopus embryo gene regulation. The chemical treatment was a phorbol ester, PMA. Xenopus eggs were obtained from females induced for ovulation and fertilized in vitro. Control Xenopus laevis embryos were allowed to develop to stage 8 blastula or stage 15 neurula. Treated embryos were exposed to PMA during cleavage stage or during neurulation with end points of blastula (stage 8) or neurula (stage 15). Specifically, PMA 100 ng/ml was added to the incubation media during cleavage stages for evaluation in stage 8 embryo or PMA was added during neural induction for evaluation in stage 15 embryos. RNA extracted from the embryos was used to generate fluorescent cDNA probes for Xenopus microarray analyses to measure differential gene expression with and without the phorbol ester treatment. Analysis was performed using paired RNA samples to compare PMA-treated and untreated embryos: Group I measured the effects of PMA-treatment during the cleavage stage in stage 8 embryos and Group II measured the effects of PMA-treatment during neurulation in stage 15 embryos. Group III measured the change in gene expression between stage 8 and stage 15 embryos.
cDNA fragments were obtained by PCR replication of Xenopus laevis unfertilized egg cDNA inserts, purified, quantitated and loaded onto glass chips by robotics. In addition to the selected ˜1,200 genes, 64 lambda Q gene, an internal control cDNA (Genomic Solutions, Inc., Ann Arbor, Mich.) was loaded on the chip. The insert DNA from ˜1,200 clones were PCR amplified using forward and reverse primers (GF.200 primers, Research Genetics, Huntsville, Ala.). A second PCR was carried out using 1 μl of the primary PCR (20 μl) for template. Excess dNTPs, polymerase and other PCR artifacts were removed from the secondary PCR reactions using Millipore Multiscreen plates (Millipore Corporation, Bedford, Mass.) using the standard protocol. The purity of the PCR products was assessed by electrophoresis and documented using an Alphalmager 1000 Digital Imaging System (Alpha Innotech Corporation, San Leandro, Calif.). The DNA obtained by PCR was quantitated using PicoGreen (Molecular Probes, Eugene, Oreg.). The DNA was denatured and arrayed onto amino-silane coated microscope slides (CMT-GAPS coated slides, Corning, Corning, N.Y.) using a Flexys robotic workstation (Genomic Solutions Inc.). The ˜1,200 PCR products were arrayed in duplicate on each slide and cross-linked. Each gene chip contained duplicate cDNA samples.
Total RNA was prepared from embryos treated in three separate dishes per treatment group that were pooled. Total RNA was isolated from the frog embryos (1,200 embryos for each probe production) using TRIzol extraction (Gibco BRL, Grand Island, N.Y.) and Qiagen RNeasy kits (Qiagen, Valencia, Calif.). The ethanol precipitated RNA was resuspended in RNase-free water, quantitated with RiboGreen (Molecular Probes, Eugene, Oreg.). Total RNA was further purified using oligoTex mRNA maxi kit (Qiagen Co.) with the bound mRNA eluted with minimum volume of elution buffer and precipitated with ethanol. The recovery rate of mRNA by the ethanol precipitation method was ˜70%. Cy3- or Cy5-tagged probes were produced from an mRNA mixture (20 μl) of Xenopus mRNA (5 μg) and lambda Q gene mRNA (3.5 ng) reverse-transcribed with oligo(dT)18-22 primer and dNTPs and the reverse-transcribed cDNA was cross-linked with Cy3 or Cy5 as described in Clontech Atlas™ Glass Fluorescent Labeling kit manual (www.clontech.com). After hydrolysis of the RNA and purification of the probe (Centricon 50, Millipore, Bedford, Mass.), the cDNA in TE buffer was quantitated by absorbance at 260 nm. […]

[1] = cleavage and neurulation stage embryos
[2] = ras-related protein gene, stage 8

With `CCCCCCCCCCCCCC(=O)O[C@@H]1[C@@H](C)[C@@]2(O)[C@@H](C=C(CO)C[C@]3(O)C(=O)C(C)=C[C@@H]23)[C@@H]2C(C)(C)[C@]12OC(C)=O` [PMA, phorbol 12-myristate 12-acetate] the “Normalization by Landmarks (1.6)” value (PBX0143D10 mRNA, stage 8) was 0.64, the “Normalization by all Data Points (1.3)” value (PBX0143D10 mRNA, stage 8) was 0.40 and the “Ratio of Medians (Cy5/Cy3) First Spot” value (PBX0143D10 mRNA, stage 8) was 0.22. For the same compound, the “Ratio of Medians (Cy5/Cy3) Mean” value (PBX0143D10 mRNA, stage 8) was 0.31 ± 0.11, the “Ratio of Medians (Cy5/Cy3) Second Spot” value (PBX0143D10 mRNA, stage 8) was 0.40 and the “Normalized by Landmarks (1.59)” value (PBX0143E06 mRNA, stage 8) was 3.85. The “Normalized by all Data Points (1.28)” value (PBX0143E06 mRNA, stage 8) was 3.10, the “Ratio of Medians (Cy5/Cy3) First Spot” value (PBX0143E06 mRNA, stage 8) was 2.92 and the “Ratio of Medians (Cy5/Cy3) Mean” value (PBX0143E06 mRNA, stage 8) was 2.42 ± 0.50. The “Ratio of Medians (Cy5/Cy3) Second Spot” value (PBX0143E06 mRNA, stage 8) was 1.91, the “(CY3/CY5) by Landmarks (1.6)” value (PBX0144A09 mRNA, stage 8) was 6.45 and the “(CY3/CY5) by all Data Points (1.3)” value (PBX0144A09 mRNA, stage 8) was 10.33. The “Normalization by Landmarks (1.6)” value (PBX0144A09 mRNA, stage 8) was 0.15, the “Normalization by all Data Points (1.3)” value (PBX0144A09 mRNA, stage 8) was 0.10 and the “Ratio of Medians (Cy5/Cy3) First Spot” value (PBX0144A09 mRNA, stage 8) was 0.06. For the same compound, the “Ratio of Medians (Cy5/Cy3) Mean” value (PBX0144A09 mRNA, stage 8) was 0.07 ± 0.02 ^a, the “Ratio of Medians (Cy5/Cy3) Second Spot” value (PBX0144A09 mRNA, stage 8) was 0.09 and the “Normalized by Landmarks (1.59)” value (PBX0144C12 mRNA, stage 8) was 5.55. For the same compound, the “Normalized by all Data Points (1.28)” value (PBX0144C12 mRNA, stage 8) was 4.47, the “Ratio of Medians (Cy5/Cy3) First Spot” value (PBX0144C12 mRNA, stage 8) was 4.75 and the “Ratio of Medians (Cy5/Cy3) Mean” value (PBX0144C12 mRNA, stage 8) was 3.49 ± 1.26. The “Ratio of Medians (Cy5/Cy3) Second Spot” value (PBX0144C12 mRNA, stage 8) was 2.23, the “Normalized by Landmarks (1.59)” value (PBX0144E04 mRNA, stage 8) was 5.45 and the “Normalized by all Data Points (1.28)” value (PBX0144E04 mRNA, stage 8) was 4.38. The “Ratio of Medians (Cy5/Cy3) First Spot” value (PBX0144E04 mRNA, stage 8) was 3.67, the “Ratio of Medians (Cy5/Cy3) Mean” value (PBX0144E04 mRNA, stage 8) was 3.42 ± 0.25 and the “Ratio of Medians (Cy5/Cy3) Second Spot” value (PBX0144E04 mRNA, stage 8) was 3.17. The “Normalized by Landmarks (1.59)” value (PBX0145A06 mRNA, stage 8) was 4.55, the “Normalized by all Data Points (1.28)” value (PBX0145A06 mRNA, stage 8) was 3.66 and the “Ratio of Medians (Cy5/Cy3) First Spot” value (PBX0145A06 mRNA, stage 8) was 2.27. For the same compound, the “Ratio of Medians (Cy5/Cy3) Mean” value (PBX0145A06 mRNA, stage 8) was 2.86 ± 0.59, the “Ratio of Medians (Cy5/Cy3) Second Spot” value (PBX0145A06 mRNA, stage 8) was 3.44 and the “(CY3/CY5) by Landmarks (1.6)” value (PBX0145A10 mRNA, stage 8) was 1.93. For the same compound, the “(CY3/CY5) by all Data Points (1.3)” value (PBX0145A10 mRNA, stage 8) was 3.10, the “Normalization by Landmarks (1.6)” value (PBX0145A10 mRNA, stage 8) was 0.52 and the “Normalization by all Data Points (1.3)” value (PBX0145A10 mRNA, stage 8) was 0.32. The “Ratio of Medians (Cy5/Cy3) First Spot” value (PBX0145A10 mRNA, stage 8) was 0.28, the “Ratio of Medians (Cy5/Cy3) Mean” value (PBX0145A10 mRNA, stage 8) was 0.25 ± 0.03 and the “Ratio of Medians (Cy5/Cy3) Second Spot” value (PBX0145A10 mRNA, stage 8) was 0.22. The “(CY3/CY5) by Landmarks (1.6)” value (PBX0145E05 mRNA, stage 8) was 5.43, the “(CY3/CY5) by all Data Points (1.3)” value (PBX0145E05 mRNA, stage 8) was 8.69 and the “Normalization by Landmarks (1.6)” value (PBX0145E05 mRNA, stage 8) was 0.18. The “Normalization by all Data Points (1.3)” value (PBX0145E05 mRNA, stage 8) was 0.12, the “Ratio of Medians (Cy5/Cy3) First Spot” value (PBX0145E05 mRNA, stage 8) was 0.11 and the “Ratio of Medians (Cy5/Cy3) Mean” value (PBX0145E05 mRNA, stage 8) was 0.09 ± 0.02. The “Ratio of Medians (Cy5/Cy3) Second Spot” value (PBX0145E05 mRNA, stage 8) was 0.07, the “(CY3/CY5) by Landmarks (1.6)” value (PBX0145E09 mRNA, stage 8) was 2.76 and the “(CY3/CY5) by all Data Points (1.3)” value (PBX0145E09 mRNA, stage 8) was 4.42. For the same compound, the “Normalization by Landmarks (1.6)” value (PBX0145E09 mRNA, stage 8) was 0.36, the “Normalization by all Data Points (1.3)” value (PBX0145E09 mRNA, stage 8) was 0.23 and the “Ratio of Medians (Cy5/Cy3) First Spot” value (PBX0145E09 mRNA, stage 8) was 0.16. The “Ratio of Medians (Cy5/Cy3) Mean” value (PBX0145E09 mRNA, stage 8) was 0.17 ± 0.02, the “Ratio of Medians (Cy5/Cy3) Second Spot” value (PBX0145E09 mRNA, stage 8) was 0.19 and the “(CY3/CY5) by Landmarks (1.6)” value (PBX0145E10 mRNA, stage 8) was 2.85. For the same compound, the “(CY3/CY5) by all Data Points (1.3)” value (PBX0145E10 mRNA, stage 8) was 4.57, the “Normalization by Landmarks (1.6)” value (PBX0145E10 mRNA, stage 8) was 0.35 and the “Normalization by all Data Points (1.3)” value (PBX0145E10 mRNA, stage 8) was 0.22. The “Ratio of Medians (Cy5/Cy3) First Spot” value (PBX0145E10 mRNA, stage 8) was 0.21, the “Ratio of Medians (Cy5/Cy3) Mean” value (PBX0145E10 mRNA, stage 8) was 0.17 ± 0.05 and the “Ratio of Medians (Cy5/Cy3) Second Spot” value (PBX0145E10 mRNA, stage 8) was 0.12. For the same compound, the “Normalized by Landmarks (1.59)” value (PBX0145H10 mRNA, stage 8) was 3.78, the “Normalized by all Data Points (1.28)” value (PBX0145H10 mRNA, stage 8) was 3.05 and the “Ratio of Medians (Cy5/Cy3) First Spot” value (PBX0145H10 mRNA, stage 8) was 2.90. For the same compound, the “Ratio of Medians (Cy5/Cy3) Mean” value (PBX0145H10 mRNA, stage 8) was 2.38 ± 0.52, the “Ratio of Medians (Cy5/Cy3) Second Spot” value (PBX0145H10 mRNA, stage 8) was 1.86 and the “expression of gene of EST PBX0144A09” value [1] was “highly down-regulated”. For the same compound, the “expression of genes of ESTs PBX0134G08, PBX0144C12, PBX0136C09, PBX0134H03, PBX0136F03, PBX0143E06 and PBX0137G06” value [1] was “highly up-regulated”, the “up-regulation of the 25 highly up-regulated Xenopus genes” value (cleavage stage, treated vs untreated embryos, Table 1, Panel A) was 3-8 fold and the “% increase of mRNA expression by Microarray analysis (NF by all data point)” value (gene PBX0135A08) was 270%^a % of control. The “% increase of mRNA expression by Microarray analysis (NF by all data point)” value (gene PBX013409) was 380% of control, the RAB-1A expression ratio [2] was 2.10 and the RAB-9 expression [2] was “down-regulated”. The RAP-1B expression [2] was “down-regulated” and the “Phosphatase 2A regulatory subunit expression (PBX0140D01)” value (stage 8) was 3 fold.
